Test [1] has as its system Triticum aestivum cv. Hereward. Put plainly: Senescence inhibition on winter wheat leaf segments (chlorophyll retention). Format: in vivo. Conditions: for Concentration with highest activity: chlorophyll retention in excised wheat leaf tips, 96 h dark; for Activity (%) [10^−4 mol · l^−1 BAP = 100%]: chlorophyll retention, at concentration with highest activity. The protocol: Seeds of winter wheat, Triticum aestivum cv. Hereward, were washed under running water for 24 hours and then sown on vermiculite soaked with Knop's solution. They were placed in the grown chamber at 15° C. with a 16/8 h light period at 50 μmol·m^−2·s^−1. After 7 days, the first leaf was fully developed and the second leaf had started to grow. A tip section of the first leaf, approximately 35 mm long, was removed from 5 seedlings and trimmed slightly to a combined weight of 100 mg. The basal ends of the five leaf tips were placed in the wells of a microtiter polystyrene plate containing 150 μl of a cytokinin solution each. The entire plate was inserted into a plastic box lined with paper tissues soaked in distilled water to prevent leaf sections from drying out. After a 96 h incubation in the dark at 25° C., the leaves were removed and chlorophyll extracted by heating at 80° C. for 10 min in 5 ml of 80% ethanol (v/v). The sample volume was then restored to 5 ml by the addition of 80% ethanol (v/v). The absorbency of the extract was recorded at 665 nm. In addition, chlorophyll extracts from fresh leaves and leaf tips incubated in deionised water were measured. From the obtained data, the concentration with highest activity was selected for each compound tested. Relative activity of the compound at this concentration was calculated (Tab. 10). The activity obtained for 10^−4 M 6-benzylaminopurine (BAP) was postulated as 100%. The values shown are means of five replicates and the whole experiment was repeated twice. The cytokinins to be tested were dissolved in dimethylsulfoxide (DMSO) and the solution brought up to 10^−3M with distilled water. This stock was further diluted in distilled water to concentrations ranging from 10^−8M to 10^−4M.

The subject of test [2] is breast carcinoma cell lines MCF-7. The experiment in a line: In vitro cytotoxic activity, Calcein AM assay, MCF7. Conditions: 72 hours, read-out: IC 50 MCF7. Format: cell-based, human. From the text: (§1) One of the parameters used, as the basis for cytotoxicity assays, is the metabolic activity of viable cells. For example, a microtiter assay, which uses the Calcein AM, is now widely used to quantitate cell proliferation and cytotoxicity. For instance, this assay is used in drug screening programs and in chemosensitivity testing. Because only metabolically active cells cleave Calcein AM, these assays detect viable cells exclusively. The quantity of reduced Calcein AM corresponds to the number of vital cells in the culture.
(§2) Human T-lymphoblastic leukemia cell line CEM; promyelocytic HL-60 and monocytic U937 leukemias; breast carcinoma cell lines MCF-7; cervical carcinoma cells HELA; mouse fibroblasts NIH3T3; human erythroleukaemia K562 and human malignant melanoma cells G361 were used for routine screening of compounds. The cells were maintained in Nunc/Corning 80 cm^2 plastic tissue culture flasks and cultured in cell culture medium (DMEM with 5 g/l glucose, 2 mM glutamine, 100 U/ml penicillin, 100 μg/ml streptomycin, 10% fetal calf serum and sodium bicarbonate).
(§3) The cell suspensions that were prepared and diluted according to the particular cell type and the expected target cell density (10^4 cells per well based on cell growth characteristics) were added by pipette (80 μl) into 96/well microtiter plates. Inoculates were allowed a pre-incubation period of 24 hours at 37° C. and 5% CO2 for stabilisation. Four-fold dilutions of the intended test concentration were added at time zero in 20 μl aliquots to the microtiter plate wells. Usually, test compound was evaluated at six 4-fold dilutions. In routine testing, the highest well concentration was 166.7 μM, but it can be the matter of change dependent on the agent. All drug concentrations were examined in duplicates. Incubations of cells with the test compounds lasted for 72 hours at 37° C., in 5% CO2 atmosphere and 100% humidity. At the end of incubation period, the cells were assayed by using the Calcein AM. Ten microliters of the stock solution were pipetted into each well and incubated further for 1 hours. Fluorescence (FD) was measured with the Labsystem FIA Reader Fluoroscan Ascent (UK). The tumour cell survival (GI50) was calculated using the following equitation: GI50=(FDdrug exposed well/mean FDcontrol wells)×100%. The GI50 value, the drug concentration lethal to 50% of the tumour cells, was calculated from the obtained dose response curves (FIG. 3).

The next test has as its system mouse fibroblasts NIH3T3. Put plainly: In vitro cytotoxic activity, Calcein AM assay, NIH-3T3. Format: cell-based. The conditions noted are these: 72 hours, read-out: IC 50 NIH-3T3.
Excerpt: as §1, §2, §3

Test [3] relates to human erythroleukaemia K562. The experiment in a line: In vitro cytotoxic activity, Calcein AM assay, K-562. Format: cell-based. The conditions noted are these: 72 hours, read-out: IC 50 K-562.
Excerpt: as §1, §2, §3

Test [4] relates to Amaranthus caudatus cotyledon/hypocotyl explants. Put plainly: Amaranthus bioassay (betacyanin content). The format is in vivo. Conditions: for Concentration with highest activity: 48 h dark; for Activity (%) [10^−5 mol · l^−1 BAP = 100%]: at concentration with highest activity. The method, then:
Standard Amaranthus bioassay was performed with several modifications. The seeds of Amaranthus caudatus var. atropurpurea were surface-sterilised in 10% N-chlorobenzenesulfonamide (w/v) for 10 min and washed 5 times in deionized water. They were placed in 15 cm Petri dishes containing paper tissues saturated with deionized water. After 72 h of cultivation at 25° C. in darkness, the roots of the seedlings were cut off. The explants, consisting of two cotyledons and hypocotyls, were placed in 5 cm Petri dishes on two layers of filter paper soaked in 1 ml of incubation medium containing 10 μmol NA2HPO4-KH2PO4, pH 6.8, 5 μmol tyrosine and the cytokinin to be tested. There were 20 explants per dish. The procedure was carried out under a green safe light in a darkroom. After a 48 h of incubation at 25° C. in darkness, betacyanin was extracted by freezing the explants in 4 ml […] acetic acid. The concentration of betacyanin was determined by comparing the absorbance at 537 nm and 620 nm as follows: ΔA=[…]-[…]. From the obtained data, the concentration with highest activity was selected for each compound tested. Relative activity of the compound at this concentration was calculated (Tab. 12). […] The values shown in table 8 are means of five replicates and the entire test was repeated twice. The cytokinins to be tested were dissolved in dimethylsulfoxide (DMSO) and the solution brought up to 10^-3M with distilled water. This stock was further diluted in the respective media used for the biotest to concentrations ranging from 10^-8M to 10^-4M. […] From the data obtained (FIG. 14) the maximum effective concentration of the tested compound was calculated as well as its relative effectiveness at this concentration (Table 12). […]

In test [5] the test system is tobacco callus Nicotiana tabacum L. cv. Wisconsin 38. The experiment in a line: Growth of cytokinin-dependent tobacco callus. The conditions noted are these: for Activity (%) [10^−5 mol · l^−1 BAP = 100%]: callus growth, at concentration with highest activity; for Concentration with highest activity: fresh callus weight after four weeks. Format: cell-based. The method, then: Cytokinin-dependent tobacco callus Nicotiana tabacum L. cv. Wisconsin 38 was maintained at 25° C. in darkness on modified Murashige-Skoog medium, containing per 1 liter: 4 μmol nicotinic acid, 2.4 μmol pyridoxine hydrochloride, 1.2 μmol thiamine, 26.6 μmol glycine, 1.37 μmol glutamine, 1.8 μmol myo-inositol, 30 g of sucrose, 8 g of agar, 5.37 μmol α-naphtylacetic acid (NAA) and 0.5 μmol benzylaminopurine (BAP). Subcultivation was carried out every three weeks. Fourteen days before the bioassay, the callus tissue was transferred to the media without 6-benzylaminopurine (BAP). Biological activity was determined from the increase in fresh callus weight after four weeks of cultivation. Five replicates were prepared for each cytokinin concentration and the entire test was repeated twice. From the obtained data, the concentration with highest activity was selected for each compound tested. Relative activity of the compound at this concentration was calculated (Tab. 6). […] The cytokinins to be tested were dissolved in dimethylsulfoxide (DMSO) and the solution brought up to 10^−3M with distilled water. This stock was further diluted in the respective media used for the biotest to concentrations ranging from 10^−8M to 10^−4M.

The test system of test [6] is Human T-lymphoblastic leukemia cell line CEM. Put plainly: In vitro cytotoxic activity, Calcein AM assay, CEM. Conditions: 72 hours. Format: cell-based.
Excerpt: as §1, §2, §3

In the next test the test system is HOS. The experiment in a line: In vitro cytotoxic activity, Calcein AM assay, HOS. Format: cell-based. Conditions: 72 hours.
Another test deals with promyelocytic HL-60. Put plainly: In vitro cytotoxic activity, Calcein AM assay, HL60. The format is cell-based, human. Conditions: 72 hours, read-out: IC 50 HL60.
Excerpt: as §1, §2, §3

pIC50: −log10 of the molar value.

Take `OC[C@H]1O[C@@H](n2cnc3c(NCc4ccccc4Br)ncnc32)[C@H](O)[C@@H]1O` [2-bromobenzylamino, 6-(2-bromobenzylamino)purine riboside]: the results for the “Concentration with highest activity” value in test [1], in test [4] and in test [5] were 10^−5 mol · l^−1, 10^−4 mol · l^−1 and 10^−5 mol · l^−1, respectively. Besides, the “Activity (%) [10^−4 mol · l^−1 BAP = 100%]” value in test [1] worked out at 86 ± 19%. Further, the pIC50 in test [2] is less than 3.78; with mouse fibroblasts NIH3T3 it was less than 3.78; in test [3] it was 5.00; in test [6] it was 4.91; in the test with HOS, less than 3.78; in the test with promyelocytic HL-60, 5.18. Moreover, the “Activity (%) [10^−5 mol · l^−1 BAP = 100%]” value in test [4] turned out to be 147 ± 7%; in test [5] it was 100 ± 4%.
Turning to `OC[C@H]1O[C@@H](n2cnc3c(NCc4c(F)ccc(F)c4F)ncnc32)[C@H](O)[C@@H]1O` [2,3,6-trifluorobenzylamino, 6-(2,3,6-trifluorobenzylamino)purine riboside], the “Concentration with highest activity” value is 10^−4 mol · l^−1 in test [1], 10^−4 mol · l^−1 in test [4] and 10^−5 mol · l^−1 in test [5]. Also, the “Activity (%) [10^−4 mol · l^−1 BAP = 100%]” value in test [1] amounted to 133 ± 14%. The pIC50 in test [2] is less than 3.78; in the test on mouse fibroblasts NIH3T3, less than 3.78; in test [3], less than 3.78; with HOS, less than 3.78; in the test with promyelocytic HL-60, 4.89. The figures for the “Activity (%) [10^−5 mol · l^−1 BAP = 100%]” value in test [4] and in test [5] were 94 ± 1% and 92 ± 2%, respectively.
Take `OC[C@H]1O[C@@H](n2cnc3c(NCc4ccc(F)c(Cl)c4)ncnc32)[C@H](O)[C@@H]1O` [3-chloro-4-fluorobenzylamino, 6-(3-chloro-4-fluorobenzylamino)purine riboside]: the “Concentration with highest activity” value is listed as 10^−4 mol · l^−1 in [1], 10^−4 mol · l^−1 in [4] and 10^−6 mol · l^−1 in test [5]. Further, the “Activity (%) [10^−4 mol · l^−1 BAP = 100%]” value in [1] is reported as 156 ± 10%. For the same compound, the pIC50 in test [2] was less than 3.78; with mouse fibroblasts NIH3T3 it was less than 3.78; in [3] it was 5.39; in [6], 5.47; with HOS, less than 3.78; in the test on promyelocytic HL-60, 5.46. The “Activity (%) [10^−5 mol · l^−1 BAP = 100%]” value is 82 ± 5% in test [4] and 87 ± 4% in [5].
In the case of `Cc1ccc(CNc2ncnc3c2ncn3[C@@H]2O[C@H](CO)[C@@H](O)[C@H]2O)cc1` [4-methylbenzylamino, 6-(4-methylbenzylamino)purine riboside], the “Concentration with highest activity” value in test [1] is reported as 10^−4 mol · l^−1; in test [4], 10^−5 mol · l^−1; in test [5], 10^−6 mol · l^−1. The “Activity (%) [10^−4 mol · l^−1 BAP = 100%]” value in test [1] was determined as 55 ± 5%. Besides, the pIC50 (in test [2]; with mouse fibroblasts NIH3T3; in [3]; in test [6]; in the test on HOS; with promyelocytic HL-60) was less than 3.78 each time. The entries for the “Activity (%) [10^−5 mol · l^−1 BAP = 100%]” value in [4] and in test [5] were 32 ± 7% and 95 ± 6%, respectively.
In the case of `OC[C@H]1O[C@@H](n2cnc3c(NCc4cc(F)cc(F)c4)ncnc32)[C@H](O)[C@@H]1O` [3,5-difluorobenzylamino, 6-(3,5-difluorobenzylamino)purine riboside], the entries for the “Concentration with highest activity” value in test [1], in [4] and in test [5] were 10^−4 mol · l^−1, 10^−4 mol · l^−1 and 10^−6 mol · l^−1, respectively. Besides, in [1], the “Activity (%) [10^−4 mol · l^−1 BAP = 100%]” value is on record as 195 ± 14%. Moreover, the pIC50 in test [2] is less than 3.78; in the test on mouse fibroblasts NIH3T3 it was less than 3.78; in test [3], less than 3.78; in test [6], 4.61; in the test with HOS, less than 3.78; in the test on promyelocytic HL-60 it was 5.04. Also, the “Activity (%) [10^−5 mol · l^−1 BAP = 100%]” value in test [4] came to 88 ± 1%; in [5], 95 ± 3%.

The values above are taken from US8119614B2, “Substitution derivatives of N6-benzyladenosine, methods of their preparation, their use for preparation of drugs, cosmetic preparations and growth regulators, pharmaceutical preparations, cosmetic preparations and growth regulators containing these compounds” (Ustav Experimentalni Botaniky Akademie Ved Ceske Republiky, priority 2002, dated 2012).
